In ChEMBL document CHEMBL1287765, “Discovery of novel quinolinone adenosine A2B antagonists” (Bioorg Med Chem Lett, 2010):

Assay: Aqueous solubility of compound
Type: physicochemical
Conditions: buffer

solubility, Insoluble:
COc1ccc2[nH]c(=O)c(S(C)(=O)=O)c(CCc3ccccc3)c2c1
CS(=O)(=O)c1c(CCc2ccccc2)c2cc(OCC(=O)Nc3ccccc3)ccc2[nH]c1=O
CS(=O)(=O)c1c(CCc2ccccc2)c2cc(OCC(=O)NCC3CC3)ccc2[nH]c1=O
CN(Cc1ccc(Cl)c(Cl)c1)C(=O)COc1ccc2[nH]c(=O)c(S(C)(=O)=O)c(CCc3ccccc3)c2c1
CS(=O)(=O)c1c(CCc2ccccc2)c2cc(OCC(=O)NCc3ccc(Cl)c(Cl)c3)ccc2[nH]c1=O
Cn1c(=O)c(S(C)(=O)=O)c(CCc2ccccc2)c2cc(OCC(=O)NCc3ccc(Cl)c(Cl)c3)ccc21
COCCCNC(=O)COc1ccc2[nH]c(=O)c(S(C)(=O)=O)c(CCc3ccccc3)c2c1
CS(=O)(=O)c1c(CCc2ccccc2)c2cc(OCC(=O)NCc3ccccc3)ccc2[nH]c1=O
